Test results as given in paper PMC9841524, “Structure-Based Rational Design of Small α-Helical Peptides with Broad-Spectrum Activity against Multidrug-Resistant Pathogens” (Journal of Medicinal Chemistry, 2022).
Like-named read-outs stand apart in the source and are kept apart here. Where no end group is shown, it is not given here.

Columns and labels:
[1] = system: human red blood cells (hRBCs); assay: Hemolytic assay; assay type: cell-based; details: 2 h, 37 °C
Experimental: The hemolytic activity of all peptides (1a–8d) was determined using hRBC. The assay was conducted by adding 75 μL of 2-fold serially diluted peptides to 75 μL of hRBC suspension (4% in PBS). The plates were incubated for 2 h at 37 °C without agitation. In order to determine the hemolysis at each tested concentration of peptides, the plate was centrifuged, and 100 μL of the supernatant was transferred to another 96-well plate to determine hemoglobin release spectrophotometrically at 567 nm. Percent hemolysis was calculated by the following formula [drawing 1] where A represents the absorbance of the peptide sample at 567 nm and A0 and At represent zero percent and 100% hemolysis determined in phosphate buffer saline and 1% Triton X-100, respectively.

[2] = system: MRSA (ATCC BAA-1556); details: broth microdilution (CLSI), CAMHB, 37 °C, 24 h
Experimental: (§1) Description of the characteristics and growth conditions of various bacterial strains used in the study are provided in the Supporting Information (Table S3). Antibacterial susceptibility testing was carried out using a standard microtiter dilution method recommended by the clinical and laboratory standard institute (CLSI) and measured as a minimum inhibitory concentration (MIC), the lowest peptide concentration that inhibited bacterial growth. Briefly, the overnight grown cultures in the recommended broth for each bacterial strain were diluted in cation-adjusted Mueller Hinton Broth (CAMHB) to give an inoculum of 10^6 colony-forming units (CFU)/mL. A 2-fold serially diluted test peptide solution (100 μL) was added to the microtiter plates. After adding bacterial suspension (100 μL), the plates were incubated at 37 °C for 24 h, and the MICs were determined. The same protocol was used to determine the MICs in the presence of salts and serum except using the media supplemented with various cationic salts (150 mM NaCl, 4.5 mM KCl, 6 mM NH4Cl, 1 mM MgCl2, and 2 mM CaCl2) or 25% FBS. The data was acquired from three independent assays performed in triplicate.
(§2) The bacterial strains employed in this study were obtained from the American Type Culture Collection (ATCC). Each strain was propagated as recommended by the ATCC, and each strain was stored as a frozen glycerol stock at -80°C. A bacterial colony was grown on the appropriate agar as indicated in Table S1 and was used to inoculate the appropriate broth. The culture was incubated at the appropriate conditions, as mentioned in Table S1. Following the incubation, the culture was diluted to an optical density 625 nm (OD625) of 0.1 in cation adjusted Mueller Hinton Broth (CAMHB), which is equivalent to 1 × 10^8 CFU/mL. The culture was further diluted to 1 × 10^6 CFU/mL, which was used to conduct the MIC determination assay. For the S. pneumoniae strains, CAMHB + 2.5% lysed horse blood was required for the assay. The strains with their […]
(§3) Table S3. Description of the characteristics and growth conditions of various bacterial strains

[3] = system: E. coli (ATCC 25922); details: broth microdilution (CLSI), CAMHB, 37 °C, 24 h
Experimental: as §1, §2, §3

[4] = system: S. aureus (ATCC 29213); assay: MIC, standard microtiter dilution (CLSI); assay type: cell-based; details: for MIC, S. aureus (ATCC 29213): broth microdilution (CLSI), CAMHB, 37 °C, 24 h
Experimental: as §1, §2, §3

[5] = system: P. aeruginosa (ATCC 27883); assay: MIC, standard microtiter dilution (CLSI); assay type: cell-based, Pseudomonas aeruginosa; details: broth microdilution (CLSI), CAMHB, 37 °C, 24 h
Experimental: as §1, §2, §3

[6] = system: K. pneumoniae (ATCCBAA-1705); assay: MIC, standard microtiter dilution (CLSI); assay type: cell-based, Klebsiella pneumoniae; details: broth microdilution (CLSI), CAMHB, 37 °C, 24 h
Experimental: as §1, §2, §3

[7] = hRBC suspension 4% in PBS, hemoglobin release at 567 nm, 1% Triton X-100 = 100%
[8] = value in parentheses (μM), hRBC 4% in PBS, 567 nm
[9] = 10^6 CFU/mL, highest MIC of three independent experiments in triplicate

| Substance | HC50 (concentration at which 50% hemolysis was observed) [1, 7] [µg/mL] | HC50 (concentration at which 50% hemolysis was observed) [1, 8] [µM] | MIC, MRSA (ATCC BAA-1556) [2, 9] [µg/mL] | MIC, MRSA (ATCC BAA-1556) ([2]; value in parentheses (μM)) [µM] | MIC, E. coli (ATCC 25922) [3, 9] [µg/mL] | MIC, E. coli (ATCC 25922) ([3]; value in parentheses (μM)) [µM] | MIC, S. aureus (ATCC 29213) [4, 9] [µg/mL] | MIC, S. aureus (ATCC 29213) ([4]; value in parentheses (μM)) [µM] | MIC, P. aeruginosa (ATCC 27883) [5, 9] [µg/mL] | MIC, P. aeruginosa (ATCC 27883) ([5]; value in parentheses (μM)) [µM] | MIC, K. pneumoniae (ATCCBAA-1705) [6, 9] [µg/mL] | MIC, K. pneumoniae (ATCCBAA-1705) ([6]; value in parentheses (μM)) [µM] | MIC against S. aureus [4] [µg/mL] |
| --- | --- | --- | --- | --- | --- | --- | --- | --- | --- | --- | --- | --- | --- |
| RWIRRWIRWWR-NH2 [5c] | > 500 | > 282.62 | 50 | 28.26 | 100 | 56.52 | 50 | 28.26 | 50 | 28.26 | 100 | 56.52 | – |
| H-RAWRRWWARA-NH2 [4g] | > 500 | > 353.69 | > 100 | > 70.74 | > 100 | > 70.74 | > 100 | > 70.74 | > 100 | > 70.74 | > 100 | > 70.74 | – |
| RWARRAWRAW-NH2 [4e] | > 500 | > 353.69 | > 100 | > 70.74 | > 100 | > 70.74 | > 100 | > 70.74 | > 100 | > 70.74 | > 100 | > 70.74 | – |
| RAWRRWWRAA-NH2 [4b] | > 500 | > 353.69 | > 100 | > 70.74 | > 100 | > 70.74 | > 100 | > 70.74 | > 100 | > 70.74 | > 100 | > 70.74 | – |
| RWRRWWR-NH2 [1a] | > 500 | > 416.52 | 100 | 83.30 | > 100 | > 83.30 | 100 | 83.30 | > 100 | > 83.30 | > 100 | > 83.30 | – |
| RWARRWARWWR-NH2 [5b] | > 500 | > 296.74 | 100 | 59.35 | 100 | 59.35 | 50 | 29.67 | 100 | 59.35 | > 100 | > 59.35 | 50 |
| RAARRWARWWR-NH2 [5a] | > 500 | > 318.50 | 100 | 63.70 | > 100 | > 63.70 | 100 | 63.70 | > 100 | > 63.70 | > 100 | > 63.70 | – |
